Columns and labels:
[1] = target: T1, α4β7 (adhesion of RPMI cells to CS-1) (Homo sapiens, UniProt P13612+P26010); assay: RPMI-CS-1 cell adhesion assay; type: cell-based; details: adhesion of RPMI B-cell line (expresses α4β7) to CS-1 peptide coated microwells; read-out: RPMI-CS-1 IC50 value range
T1 construct: endogenous in cells
T1 sequence (P13612 34-1032): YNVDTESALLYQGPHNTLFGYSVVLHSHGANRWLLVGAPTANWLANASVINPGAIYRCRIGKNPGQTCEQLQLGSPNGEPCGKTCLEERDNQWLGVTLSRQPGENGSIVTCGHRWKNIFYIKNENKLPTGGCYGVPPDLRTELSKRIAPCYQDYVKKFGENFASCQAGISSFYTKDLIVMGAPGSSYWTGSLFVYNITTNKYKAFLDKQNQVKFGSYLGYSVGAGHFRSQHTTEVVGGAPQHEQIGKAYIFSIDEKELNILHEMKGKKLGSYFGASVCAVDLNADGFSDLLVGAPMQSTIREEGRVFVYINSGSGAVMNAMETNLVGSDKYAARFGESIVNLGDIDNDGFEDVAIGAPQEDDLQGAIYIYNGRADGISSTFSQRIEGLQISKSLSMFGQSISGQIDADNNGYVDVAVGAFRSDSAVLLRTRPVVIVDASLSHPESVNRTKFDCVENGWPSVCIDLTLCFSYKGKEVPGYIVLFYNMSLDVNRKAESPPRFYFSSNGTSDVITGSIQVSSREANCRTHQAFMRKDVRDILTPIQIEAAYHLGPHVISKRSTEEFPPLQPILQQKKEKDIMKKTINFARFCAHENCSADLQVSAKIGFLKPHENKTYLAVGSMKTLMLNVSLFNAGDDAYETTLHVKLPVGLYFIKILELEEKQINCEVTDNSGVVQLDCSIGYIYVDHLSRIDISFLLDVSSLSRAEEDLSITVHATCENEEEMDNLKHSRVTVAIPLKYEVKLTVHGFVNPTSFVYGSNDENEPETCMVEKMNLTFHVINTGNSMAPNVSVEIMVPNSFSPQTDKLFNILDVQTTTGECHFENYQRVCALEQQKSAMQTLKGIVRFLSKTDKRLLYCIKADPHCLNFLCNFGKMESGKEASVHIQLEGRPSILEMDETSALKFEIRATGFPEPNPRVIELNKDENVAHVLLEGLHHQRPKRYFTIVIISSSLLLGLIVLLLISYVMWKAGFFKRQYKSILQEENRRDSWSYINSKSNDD
T1 sequence (P26010 20-798): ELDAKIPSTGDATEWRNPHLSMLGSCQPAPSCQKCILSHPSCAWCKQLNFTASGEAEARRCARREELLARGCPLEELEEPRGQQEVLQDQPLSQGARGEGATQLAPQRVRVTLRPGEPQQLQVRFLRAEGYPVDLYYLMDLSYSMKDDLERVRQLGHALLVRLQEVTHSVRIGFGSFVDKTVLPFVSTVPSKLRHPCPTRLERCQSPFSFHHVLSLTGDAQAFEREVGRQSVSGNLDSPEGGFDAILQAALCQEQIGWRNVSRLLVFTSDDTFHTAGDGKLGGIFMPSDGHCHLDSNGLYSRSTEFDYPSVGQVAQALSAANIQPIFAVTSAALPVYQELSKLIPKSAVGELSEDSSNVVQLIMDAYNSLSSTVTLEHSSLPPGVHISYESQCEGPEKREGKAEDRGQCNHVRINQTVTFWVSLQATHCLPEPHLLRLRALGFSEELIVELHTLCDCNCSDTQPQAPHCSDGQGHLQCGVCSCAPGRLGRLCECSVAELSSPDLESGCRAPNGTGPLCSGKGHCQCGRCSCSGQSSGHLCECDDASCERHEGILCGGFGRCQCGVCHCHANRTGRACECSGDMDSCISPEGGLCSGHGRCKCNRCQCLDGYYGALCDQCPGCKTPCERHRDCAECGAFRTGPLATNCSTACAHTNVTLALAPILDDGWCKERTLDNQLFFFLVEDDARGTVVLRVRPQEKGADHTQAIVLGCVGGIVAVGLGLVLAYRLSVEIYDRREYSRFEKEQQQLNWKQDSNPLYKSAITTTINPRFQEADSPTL

Compound	IC50 [1] [nM]	melting point [°C]
COc1cc(C(F)(F)F)cc(OC)c1-c1ccc(C[C@H](NC(=O)c2c(Cl)cccc2Cl)C(=O)O)cc1 [Example 321, N-(2,6-Dichlorobenzoyl)-4-[2,6-dimethoxy-4-(trifluoromethyl)phenyl]-L-phenylalanine]	< 300	231 to 232
CNC(=O)Nc1ccc(OC)c(-c2ccc(C[C@H](NC(=O)c3c(Cl)cccc3Cl)C(=O)O)cc2)c1OC [Example 324, N-(2,6-Dichlorobenzoyl)-4-[2,6-dimethoxy-3-(methylureido)phenyl]-L-phenylalanine]	< 300	236 to 237
COc1ccc(NC(C)=O)c(OC)c1-c1ccc(C[C@H](NC(=O)c2c(Cl)cccc2Cl)C(=O)O)cc1 [Example 325, N-(2,6-Dichlorobenzoyl)-4-[2,6-dimethoxy-3-(acetylamino)phenyl]-L-phenylalanine]	< 300	244 to 245
COc1ccc(C(N)=O)c(OC)c1-c1ccc(C[C@H](NC(=O)c2c(Cl)cccc2Cl)C(=O)O)cc1 [Example 326, N-(2,6-Dichlorobenzoyl)-4-(2,6-dimethoxy-3-carbamoylphenyl)-L-phenylalanine]	< 300	227 to 228
O=C(N[C@@H](Cc1ccc(-c2cccc3c2OCC3)cc1)C(=O)O)c1c(Cl)cccc1Cl [Example 327]	< 300	215 to 216
O=C(N[C@@H](Cc1ccc(-c2cccc3c2OCCC3)cc1)C(=O)O)c1c(Cl)cccc1Cl [Example 328]	< 300	214 to 215
CC(C)(C)OC(=O)n1cccc1-c1ccc(C[C@H](NC(=O)c2c(Cl)cccc2Cl)C(=O)O)cc1 [Example 329, N-(2,6-Dichlorobenzoyl)-4-(1-tert-butoxycarbonyl-2-pyrrolyl)-L-phenylalanine]	1000 to 5000	98 to 99
COc1cccc(OC)c1-c1ccc(C[C@H](NC(=O)c2c(Cl)ccc(Br)c2Cl)C(=O)O)cc1 [Example 331, N-(2,6-Dichloro-3-bromobenzoyl)-4-(2,6-dimethoxyphenyl)-L-phenylalanine]	< 300	234.8
CS(=O)(=O)Nc1ccc(C(=O)N[C@@H](Cc2ccc(-c3ccccc3C(F)(F)F)cc2)C(=O)O)c(Cl)c1 [Example 335, N-[2-Chloro-4-(methansulfonylamino)benzoyl]-4-[2-(trifluoromethyl)phenyl]-L-phenylalanine]	300 to 1000	114
COc1ccccc1-c1ccc(C[C@H](NC(=O)c2c(Cl)cccc2Cl)C(=O)O)cc1Cl [Example 336, N-(2,6-Dichlorobenzoyl)-3-chloro-4-(2-methoxyphenyl)-L-phenylalanine]	< 300	131
CCC(=O)c1cc(C[C@H](NC(=O)c2c(Cl)cccc2Cl)C(=O)O)ccc1-c1ccccc1OC [Example 337]	< 300	118 to 119
CCCCC(=O)c1cc(C[C@H](NC(=O)c2c(Cl)cccc2Cl)C(=O)O)ccc1-c1ccccc1OC [Example 338]	< 300	117.6
CCCCCCC(=O)c1cc(C[C@H](NC(=O)c2c(Cl)cccc2Cl)C(=O)O)ccc1-c1ccccc1OC [Example 339]	< 300	86 to 88
COc1ccc(OC)c(-c2ccc(C[C@H](NC(=O)c3c(Cl)cccc3Cl)C(=O)O)cc2C(C)O)c1OC (stereo partly drawn) [Example 340]	< 300	121 to 123
CCC(O)c1cc(C[C@H](NC(=O)c2c(Cl)cccc2Cl)C(=O)O)ccc1-c1ccccc1OC (stereo partly drawn) [Example 341]	< 300	117 to 119
CCCCC(O)c1cc(C[C@H](NC(=O)c2c(Cl)cccc2Cl)C(=O)O)ccc1-c1ccccc1OC (stereo partly drawn) [Example 342]	< 300	158 to 159
CON=C(C)c1cc(C[C@H](NC(=O)c2c(Cl)cccc2Cl)C(=O)O)ccc1-c1ccccc1OC [Example 352, N-(2,6-Dichlorobenzoyl)-3-[1-(methoxyimino)ethyl]-4-(2-methoxyphenyl)-L-phenylalanine]	300 to 1000	106.8
CCOC(=O)[C@H](Cc1ccc(-c2c(OC)cc(CN3CCCCC3)cc2OC)cc1)NC(=O)c1c(F)cccc1F [Example 354]	< 300	150
